# Reference: publication PMC3161871, “Heteroarylketones inhibit astroglial interleukin-6 expression via a STAT3/NF-κB signaling pathway” (Journal of Neuroinflammation, 2011)
# Experiments:
# [1] = test system: IL-6 release from U343 cells; assay: Dose-dependent stimulation of IL-6 release by OSM in U343 cells (ELISA); assay type: cell-based, human; settings: U343 cells treated 24 h with OSM, ELISA of conditioned medium
# Experimental: (§1) The human glioma cell line U343 [34] was maintained in DMEM containing 10% fetal bovine serum and 60 μg/ml gentamycin (Invitrogen, Darmstadt, Germany) at 37°C in a 10% CO2 atmosphere.
# Measurements of IL-6 in conditioned medium and murine plasma samples were done by means of human- or murine-specific IL-6 Cytoset kits (Invitrogen, Darmstadt, Germany) according to manufacturer's protocols.
# The dose- and time-dependent stimulation of IL-6 expression by OSM in U343 cells is characterized in figure 1. To analyze dose dependence of IL-6 release, U343 cells were treated for 24 hours with various concentrations of OSM followed by measurement of IL-6 protein concentrations in the conditioned medium by a specific ELISA. […] Therefore, all further investigations were performed with 100 ng/ml OSM. The highest dose of 200 ng/ml OSM led to 30-fold increase of IL-6 accumulation in the conditioned media in comparison to vehicle-treated cells.
# Figure 1 OSM induces dose- and time-dependent IL-6 expression in human U343 glioma cells. OSM treatment leads to dose-dependent IL-6 release (A). U343 cells were stimulated with different concentrations of OSM as indicated. After 24 hours the conditioned medium was analyzed by IL-6-specific ELISA. […] IL-6 mRNA expression was analyzed by qRT-PCR (dotted line, black triangles) and IL-6 protein release by ELISA (solid line, black squares). […]
# [2] = test system: IL-6 mRNA expression in U343 cells; assay: OSM-induced IL-6 mRNA expression in U343 cells (qRT-PCR time course); assay type: cell-based, human; settings: 100 ng/ml OSM
# Experimental: as §1
# Total RNA of cultured cells and homogenized mouse brain tissue samples was isolated using RNA isolation kit "NucleoSpin RNA II" from Macherey and Nagel. RNA quantity was measured by spectrophotometrical quantification (NanoDrop 2000, Peqlab, Erlangen, Germany). Total RNA (0.5 μg) was transcribed to cDNA using Superscript III and oligo-dT primer (Invitrogen, Darmstadt, Germany). Quantitative real-time PCR was performed with QuantiFast SYBR Green PCR Master mix (Qiagen, Hilden, Germany) using Rotorgene 3000 system (Corbett, Sydney, Australia). Gene expression was normalized to the expression of three reference genes glyceraldehyde 3-phosphate dehydrogenase (GAPDH), glucose-6-phosphate dehydrogenase (G6PDH) and hypoxanthine-guanine phosphoribosyltransferase (HPRT). Primers for PREP (5'-[…]-3'; 5'- […]-3') and IL-6 (5'-AAAGGACGTCACATTGCA-3'; 5'-[…]-3') were designed using the Primer3 Software (http://frodo.wi.mit.edu/). Data were analyzed by Rotorgene 3000 Software version 6.0 by comparative quantitation. The appropriate size of PCR products was confirmed by gel-electrophoresis stained with ethidium bromide.
# To analyze the time-course of OSM-induced IL-6 expression, U343 cells were incubated with OSM for different periods of time as indicated in figure 1B. Amounts of IL-6 mRNA and protein were subsequently quantified by qRT-PCR and by ELISA, respectively. […] Significant induction of IL-6 protein was detected in the conditioned medium as early as 3 h post stimulation and reaching a maximum at 24 h.
# To reveal whether bioactivity of HAK compounds is based on suppression of IL-6 protein biosynthesis or on interference with IL-6 mRNA expression OSM-treated U343 cells were incubated with 20 μM of compound HAK-2 for different periods of time. […] Therefore, it is very likely that the relevant molecular target of HAK compounds is involved in the OSM-induced signal transduction process not earlier than 6 h after onset of the stimulation.
# Figure 4 Time course of OSM-induced IL-6 mRNA expression in U343 cells treated with compound HAK-2. […] U343 cells were stimulated with 100 ng/ml OSM and treated with 0.1% DMSO as solvent control (solid line, black triangle) or 20 μM HAK-2 (dashed line, white triangle). Samples were harvested at time points indicated to extract total RNA. IL-6 mRNA expression was analyzed by qRT-PCR. All data points are presented as mean ± SD, and were obtained from experiments carried out in quadruplicate. Statistical analysis were performed between control and HAK-2 samples from same time point. ns, not significant; ***p < 0.001.
substance,measurement,setting,value
"Oncostatin M [OSM, reference compound]",EC50 of IL-6 release,[1],0.0705 ± 0.02268 µg/mL
same,"IL-6 mRNA induction, first peak",[2]; 1 h post stimulation,6.5 fold
same,"IL-6 mRNA induction, second peak",[2]; 16 h post stimulation,5.5 fold
